Measured values from patent publication US8598210B2, “Prolyl hydroxylase inhibitors and methods of use” (Akebia Therapeutics Inc., priority 2006, dated 2013).

Legend:
[1] = target: Recombinant human EGLN-1-179/426 (Homo sapiens (Human), UniProt Q9GZT9); experiment: EGLN-1 Activity Assay (MALDI-TOF MS); assay type: biochemical; details: read-out: EGLIN1 IC50
Experimental: (§1) Hydroxylated peptide product is identified from substrate by the gain of 16 Da. Data defined as percent conversion of substrate to product is analyzed in GraphPad Prism 4 to calculate IC50 values.

EPO = experiment: Mouse Serum EPO Assay (mouse ischemic hindlimb study); assay type: in vivo; details: for EPO response: in vivo response
Experimental: (§2) Mouse Ischemic Hindlimb Study
(§3) All animal work is conducted in accordance with the Guide for the Care and Use of Laboratory Animals (National Academy of Sciences; Copyright© 1996) and the Institutional Animal Care and Use Committee guidelines at Procter and Gamble Pharmaceuticals. We studied 9-10 week old male C57B1/6 mice from Charles River Laboratory (Portage, Mich.). The mice are orally dosed with vehicle (aqueous carbonate buffer, 50 mM; pH 9.0) or compound 1 in vehicle at 50 mg/kg or 100 mg/kg. The animals are dosed three times: day 1 at 8 am and 5 pm, day 2 at 8 am. One hour after the first dose, unilateral arterial ligation is performed under anesthesia using isoflurane. The femoral artery is ligated proximal to the origin of the popliteal artery. The contralateral limb underwent a sham surgical procedure. Ligation is performed in an alternating fashion between right and left hindlimbs. Two hours after 8 am dosing on day 2, we obtained blood by ventricular stick while the mice are anesthetized with isoflurane. Serum samples for EPO analysis are obtained using gel clot serum separation tubes. Heart, liver, and gastrocnemius muscles are harvested, snap-frozen in liquid nitrogen, and stored in −80° C. until use.
The mouse serum EPO is detected using Mouse Quantikine Erythropoietin ELISA kit from R&D Systems according to manufacturer's instructions.

[2] = target: Full-length recombinant human EGLN-3 (His-MBP-TVMV-EGLN-3 fusion) (Homo sapiens (Human), UniProt Q9H6Z9); experiment: EGLN-3 enzyme activity assay (MALDI-TOF MS); assay type: biochemical; details: read-out: EGLIN3 IC50
Experimental: as §1

HIF-1α = experiment: Mouse Tissue HIF Western Blot Analysis; assay type: in vivo; details: FIG. 1; immunoblot analysis of nuclear extracts
Experimental: as §2, §3
Mouse Tissue HIF Western Blot Analysis
Tissues from mice stored at −80° C. are powdered with mortar and pestle chilled with liquid nitrogen. […]

Recombinant human EGLN-1-179/426, sequence (Q9GZT9 179-426): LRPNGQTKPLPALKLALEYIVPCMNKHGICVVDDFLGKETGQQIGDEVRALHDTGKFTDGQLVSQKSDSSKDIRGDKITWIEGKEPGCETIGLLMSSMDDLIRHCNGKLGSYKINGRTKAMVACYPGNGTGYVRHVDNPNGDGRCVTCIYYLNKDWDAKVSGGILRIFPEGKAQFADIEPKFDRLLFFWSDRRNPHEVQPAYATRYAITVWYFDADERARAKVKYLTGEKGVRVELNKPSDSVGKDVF
Full-length recombinant human EGLN-3 (His-MBP-TVMV-EGLN-3 fusion), sequence (Q9H6Z9 whole entry, the tested form may be a part): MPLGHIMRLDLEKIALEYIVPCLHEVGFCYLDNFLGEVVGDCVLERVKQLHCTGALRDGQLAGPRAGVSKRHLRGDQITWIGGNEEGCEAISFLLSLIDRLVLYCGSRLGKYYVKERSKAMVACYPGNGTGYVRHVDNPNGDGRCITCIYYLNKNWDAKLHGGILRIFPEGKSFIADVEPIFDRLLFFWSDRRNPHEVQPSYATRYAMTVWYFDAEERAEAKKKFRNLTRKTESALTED

Compound	IC50 [1]	EPO response (EPO)	IC50 [2]	further results
O=C(O)CNC(=O)c1ncc(-c2cccc(-c3nn[nH]n3)c2)cc1O [({3-Hydroxy-5-[3-(2H-tetrazol-5-yl)phenyl]-pyridine-2-carbonyl}-amino)-acetic acid]	400 nM	–	–	–
COC(=O)CNC(=O)c1ncc(-c2cccc(C(=O)N3CCCC3)c2)cc1O [({3-Hydroxy-5-[3-(pyrrolidine-1-carbonyl)-phenyl]-pyridine-2-carbonyl}-amino)-acetic acid methyl ester]	2500 nM	–	–	–
O=C(O)CNC(=O)c1ncc(-c2cccc(C(=O)N3CCCC3)c2)cc1O [({3-Hydroxy-5-[3-(pyrrolidine-1-carbonyl)phenyl]-pyridine-2-carbonyl}amino)-acetic acid]	300 nM	–	–	–
Cc1ccc(-c2ccc(C(=O)NCC(=O)O)c(O)c2)cc1 [[(3-Hydroxy-4′-methyl-biphenyl-4-carbonyl)-amino]-acetic acid]	20000 nM	yes	–	–
COC(=O)CNC(=O)c1ncc(-c2ccc(C)cc2)cc1O [[(3-Hydroxy-5-(4-methylphenyl)-pyridine-2-carbonyl)-amino]-acetic acid methyl ester]	4100 nM	–	52300 nM	–
Cc1ccc(-c2cnc(C(=O)NCC(=O)O)c(O)c2)cc1 [[(3-Hydroxy-5-(4-methylphenyl)pyridine-2-carbonyl)amino]-acetic acid]	–	yes	180 nM	–
COC(=O)CNC(=O)c1ncc(-c2ccccc2Cl)cc1O [{[5-(2-Chloro-phenyl)-3-hydroxy-pyridine-2-carbonyl]-amino}-acetic acid methyl ester]	–	yes	37500 nM	–
O=C(O)CNC(=O)c1ncc(-c2ccccc2Cl)cc1O [{[5-(2-Chlorophenyl)-3-hydroxypyridine-2-carbonyl]amino}-acetic acid]	–	yes	390 nM	–
Cc1ccc(Cl)cc1-c1cnc(C(=O)NCC(=O)O)c(O)c1 [{[5-(2-Methyl-5-chlorophenyl)-3-hydroxypyridine-2-carbonyl]amino}-acetic acid]	2500 nM	–	–	–
COC(=O)CNC(=O)c1ncc(-c2cccc(C(N)=O)c2)cc1O [{[5-(3-Carbamoyl-phenyl)-3-hydroxy-pyridine-2-carbonyl]-amino}-acetic acid methyl ester]	11200 nM	–	–	–
O=C(O)CNC(=O)c1ncc(-c2cccc(Cl)c2)cc1O [{[5-(3-Chlorophenyl)-3-hydroxypyridine-2-carbonyl]amino}-acetic acid]	–	yes	–	erythropoietin level versus vehicle in mouse serum (EPO; FIG. 2, after oral dosing): elevated; stabilization of HIF-1α in mouse liver (HIF-1α): stabilization
N#Cc1cccc(-c2cnc(C(=O)NCC(=O)O)c(O)c2)c1 [{[5-(3-Cyanophenyl)-3-hydroxypyridine-2-carbonyl]amino}-acetic acid]	190 nM	–	–	–
COC(=O)CNC(=O)c1ncc(-c2cccc(Cl)c2)cc1O [{[5-(3-chloro-phenyl)-3-hydroxy-pyridine-2-carbonyl]-amino}-acetic acid methyl ester]	2800 nM	yes	21400 nM	–
COC(=O)CNC(=O)c1ncc(-c2ccc(Cl)cc2)cc1O [{[5-(4-Chloro-phenyl)-3-hydroxy-pyridine-2-carbonyl]-amino}-acetic acid methyl ester]	3700 nM	–	–	–
N#Cc1ccc(-c2cnc(C(=O)NCC(=O)O)c(O)c2)cc1 [{[5-(4-Cyanophenyl)-3-hydroxypyridine-2-carbonyl]amino}-acetic acid]	–	yes	560 nM	–
CC(C)Oc1ccc(-c2cnc(C(=O)NCC(=O)O)c(O)c2)cc1 [{[5-(4-Isopropoxyphenyl)-3-hydroxypyridine-2-carbonyl]amino}-acetic acid]	1600 nM	–	–	–
CC(C)c1ccc(-c2cnc(C(=O)NCC(=O)O)c(O)c2)cc1 [{[5-(4-Isopropylphenyl)-3-hydroxypyridine-2-carbonyl]amino}-acetic acid]	440 nM	–	–	–
{[5-(4-Chlorophenyl)-3-hydroxypyridine-2-carbonyl]amino}-acetic acid	–	yes	83 nM	–
